The values below come from patent US11072628B2, “Nucleoside analogues for the treatment of parasitic infections” (UNIVERSITEIT GENT, priority 2017, dated 2021).

The structures appear in SMILES notation. “Also recorded” adds a separate entry of the source.

The test system of one data set is T. brucei Squib 427. The experiment in a line: In vitro drug susceptibility, T. brucei Squib 427 (resazurin). Format: cell-based, Trypanosoma brucei brucei. As to conditions: Trypanosoma brucei, read-out: T. brucei brucei EC50, Table 1; average of 2-4 independent determinations. How it is done: (§1) All trypanosome strains were cultured in the standard HMI-9 medium supplemented with 10% fetal bovine serum (FBS) at 37° C. in a 5% CO2 atmosphere.
For orientation: The colour change of resazurin is a common sign of viable cells or microbes.

In data set [1] the test system is T. b. rhodesiense STIB-900. The data set can be described thus: In vitro drug susceptibility, T. b. rhodesiense STIB-900 (resazurin). Format: cell-based, Trypanosoma brucei rhodesiense. As to conditions: Trypanosoma brucei, RHODESIENSE, read-out: T. brucei rhod. EC50. How it is done:
as §1

Data set [2] can be described thus: Cytotoxicity against MRC-5 fibroblasts. As to conditions: human, MRC-5 fibroblasts, cytotoxicity. How it is done:
Cytotoxicity was assayed against MRC-5 fibroblasts. Results are depicted in Tables 4 and 5.

Data set [3] concerns T. cruzi Tulahuen CL2 β galactosidase strain. The experiment in a line: T. cruzi Tulahuen CL2 β galactosidase strain on MRC-5SV2 cells (CPRG). Format: cell-based, Trypanosoma cruzi. As to conditions: Trypanosoma cruzi, TULAHUEN, MRC-5 SV2; Table 2; average of 2-3 independent replicates. How it is done: All cultures and assays were conducted at 37° C./5% CO2. […] The results were expressed as % reduction in parasite burdens compared to control wells from which an EC50 was calculated.

For data set [4], the system named is T. b. brucei Squib 427. The experiment in a line: In vivo antiparasitic activity in mice (T. brucei; acute model). The arrangement: species or system Trypanosoma brucei brucei. How it is done: The test compound of the invention was formulated in 10% (V/V) PEG400 in water at 2 mg/mL and was freshly prepared at every administration. The test compound was administered orally (PO) b.i.d. for 5 days at 25 mg/kg. The reference drug suramin was formulated in PBS at 2.5 mg/mL and administered s.i.d. IP for 5 days at 10 mg/kg. Treatment was initiated ½ hour prior to the IP infection.

Another data set relates to T. brucei AnTAR1 PPYRE9. The experiment in a line: In vivo antiparasitic activity in mice (T. brucei; stage-II disease model). Details: species or system Trypanosoma brucei. As to conditions: treatment from 21 dpi for 5 days; 25 mg/kg PO b.i.d. or 25, 12.5 or 6.25 mg/kg s.i.d. How it is done: The test compound, FH7429_D was formulated in 5% (V/V) Tween80 at 4 mg/mL and administered according to body weight (25 mg/kg bid., oral gavage) for 5 days. Treatment commenced at 21 dpi, in mice which had positive CNS involvement (BLI). Two reference groups: vehicle control as well as melarsoprol (120 mg/kg, s.i.d. topical for 3 days) were included. Topical melarsoprol formulation was prepared as following: 3.6% melarsprol in propylene glycol was used to prepare a 1.5% hydroxypropylcellulose (HPC) gel.
Parasitemia analysis was performed by microscopic evaluation of tail vein blood samples at 21 (before treatment initiation), 25, 28, 32 and 35 dpi. Bioluminescent imaging (BLI) was performed at 7, 14, 21, 28, 35, 43, 50 and 53 dpi. BLI experiments were performed as following: D-luciferin (15 mg/kg) was injected intraperitoneally, and mice were subsequently anaesthetized using isoflurane. The luminescent signal was measured over a 5 second as well as 5-minute exposure time, both for the ventral as well as the dorsal side of the animals.

For data set [5], the system named is T. vaginalis trophozoites (metronidazole susceptible G3 strain). The data set can be described thus: Trichomonas vaginalis in vitro assay. It is filed as cell-based. As to conditions: Trichomonas vaginalis; Table 3; average of 2-5 independent replicates. How it is done: T. vaginalis trophozoites (metronidazole susceptible G3 strain) were grown in vitro in modified Diamond's media (MDM) with 10% heat inactivated horse serum (HIHS) acquired from Gibco Life Technologies. After medium preparation, the pH was adjusted to 6.3-6.4 employing 1.0 M aq. HCl. Parasites cultures were passaged every day by taking 1 mL of cell culture into a 25 mL bottle of fresh media to ensure the cells were kept at the appropriate concentration of ˜2×10^6 cells/mL. The culture flasks were filled completely and tightly capped to provide the cells with an anaerobic environment. The parasites were maintained in incubation at 37° C. When culturing in multiwell plates, the plates were sealed with Nescofilm® and inserted in BD GasPak EZ pouches (BD Diagnostics, UK) in order to create anaerobic conditions. Assays were performed with 5×10^4 trophozoites/well (100 μL) to which compound dilutions were added (100 μL). Outside wells of columns and rows were filled with 200 μL of sterile water. Plates were sealed with Nescofilm® and incubated under anaerobic conditions as described above. After 24 h, 30 μL of assay dye solution (resorufin) was added, and incubated for 1-2 h before being read using Fluostar Optima (BMG Labtech, UK) at an excitation wavelength of 544 nm and an emission wavelength of 620 nm.

For another data set, the system named is T. cruzi (Y-strain). The data set can be described thus: In vivo antiparasitic activity in mice (T. cruzi Y-strain). Details: species or system Trypanosoma cruzi. As to conditions: 25 mg/kg PO b.i.d. for five days starting at 5 dpi. As to the method: The animals were allowed to acclimate for 7 days before starting the experiments. […] Age-matched non-infected mice were maintained under identical conditions. The animals were divided into the following groups (n=6): uninfected (non-infected and non-treated), untreated (infected but treated only with vehicle), and treated (infected and treated with the compounds). […] Formulations were prepared freshly before each administration. Only mice with positive parasitemia were used in the infected groups. Parasitemia was individually checked by direct microscopic counting of the number of parasites in 5 μl of blood (Panel A—FIG. 5), and mice were checked for mortality daily until 30 days post-treatment (corresponding to 40 dpi). Mortality is expressed as the percent cumulative mortality (CM; Panel B—FIG. 5).

Data set [6] has as its system T. b. brucei Squib 427. As to conditions: comparison statement, not tested here; cited from earlier work.

The term EC50 denotes the concentration needed to bring the measured effect to its halfway point. Regarding `Nc1ncnc2c1ccn2[C@@H]1O[C@H](CO)C[C@H]1O` [FH7429_D, 4-amino-N7-(3′-deoxy-β-D-ribofuranosyl)-pyrrolo[2,3-d]pyrimidine], the EC50 with T. brucei Squib 427 was 50 nM; in [1], 0.5 nM; in data set [2] (MRC-5 EC50, Table 1), more than 64000 nM; in data set [2] (MRC-5 EC50, Table 2), more than 64000 nM; in [3], more than 64000 nM. Also, in the data set on T. b. brucei Squib 427 [4] (animals surviving until day 21 post infection), the “parasitological cure (sub-inoculation in naive mice)” value was “total parasitological cure; also recorded: able cure an acute infection”. Further, the “clinical symptoms of trypanosomiasis / parasitemia” value with T. b. brucei Squib 427 [4] (infected mice, 5 consecutive days, test compound 25 mg/kg PO b.i.d. (FH7429_D also 10 mg/kg s.i.d. IP), suramin 10 mg/kg) is “no clinical symptoms of trypanosomiasis were observed”. Further, the adverse drug effects result in the data set on T. b. brucei Squib 427 [4] (mice, 5 days treatment) was “No signs of adverse drug effects were observed”. Further, the “cure in stage-II HAT model” value in the data set on T. brucei AnTAR1 PPYRE9 is on record as “considered cured”. Moreover, the “parasitemia (BLI or tail vein blood analysis)” value with T. brucei AnTAR1 PPYRE9 was “did not show any signs of parasitemia from 28 dpi onwards”.

As for `Nc1ncnc2c1c(-c1ccc(Cl)cc1)cn2[C@@H]1O[C@H](CO)C[C@H]1O` [FH8512, 4-amino-5-(4-chlorophenyl)-N7-(3′-deoxy-β-D-ribofuranosyl)-pyrrolo[2,3-d]pyrimidine], the 50% effective concentration (EC50) worked out at 2300 nM in the data set with T. brucei Squib 427; 1800 nM in [1]; 19100 nM in data set [2] (MRC-5 EC50, Table 1); 19100 nM in data set [2] (MRC-5 EC50, Table 2); 50 nM in data set [3]; 170 nM in data set [5]. The blood parasitemia entry in the data set with T. cruzi (Y-strain) is recorded as “suppress blood parasitemia”. Further, in the data set on T. cruzi (Y-strain), the “mortality caused by the infection” value is “protect animals from mortality”.

In the case of `Nc1ncnc2c1ncn2[C@@H]1O[C@H](CO)C[C@H]1O` [cordycepin, 3′-deoxy-adenosine], in the data set on T. b. brucei Squib 427 [6], the “clearance of T. brucei infection as a monotherapy” value was “unable to clear the infection”.
